A short description of data set [1]: Ratio of drug level in brain to plasma in CD-1 mouse plasma at 0.4 mg/kg, iv by LC-MS/MS analysis. The format is ADME, organism-based. Conditions: brain and plasma, read-out: BPR.
A short description of data set [2]: MRT in CD-1 mouse plasma at 0.4 mg/kg, iv by LC-MS/MS analysis. The class given is ADME, organism-based.
Data set [3] is described as follows: Cmax in CD-1 mouse plasma at 2 mg/kg, po by LC-MS/MS analysis. The format is ADME, organism-based. Also noted: dose 2 mg/kg, route po.
A short description of data set [4]: Clearance in CD-1 mouse plasma at 0.4 mg/kg, iv by LC-MS/MS analysis. The format is ADME, organism-based.
The nature of data set [5]: AUC infinity in CD-1 mouse plasma at 2 mg/kg, po by LC-MS/MS analysis. The class given is ADME, organism-based. The arrangement: time infinity, dose 2 mg/kg, route po.
A short description of data set [6]: MRT in CD-1 mouse plasma at 2 mg/kg, po by LC-MS/MS analysis. The class given is ADME, organism-based.
Data set [7] can be described thus: Half life in CD-1 mouse plasma at 2 mg/kg, po by LC-MS/MS analysis. The format is ADME, organism-based.
Data set [8] is described as follows: Cmax in CD-1 mouse plasma at 0.4 mg/kg, iv by LC-MS/MS analysis. The class given is ADME, organism-based. Also noted: dose 0.4 mg/kg, route iv.
The nature of data set [9]: in vitro. The settings on record: human, Caco-2.
Data set [10] in a line: in vitro. Conditions: human, Caco-2. The source holds these as a separate data set.
Data set [11] can be described thus: Oral bioavailability in CD-1 mouse plasma at 2 mg/kg by LC-MS/MS analysis. The class given is ADME, organism-based.
A short description of data set [12]: Tmax in CD-1 mouse plasma at 2 mg/kg, po by LC-MS/MS analysis. The class given is ADME, organism-based.
Data set [13] can be described thus: in vitro. Conditions: mouse, liver microsomes. Background: Liver microsomes are a subcellular fraction often used to study metabolism.
Data set [14] is described as follows: Half life in CD-1 mouse plasma at 0.4 mg/kg, iv by LC-MS/MS analysis. The class given is ADME, organism-based.
Data set [15] in a line: Ratio of drug level in brain to plasma in CD-1 mouse plasma at 2 mg/kg, po by LC-MS/MS analysis. The format is ADME, organism-based. The settings on record: brain and plasma, read-out: BPR.
A short description of data set [16]: AUC infinity in CD-1 mouse plasma at 0.4 mg/kg, iv by LC-MS/MS analysis. Also noted: time infinity, dose 0.4 mg/kg, route iv. The class given is ADME, organism-based.
A short description of data set [17]: in vitro. Conditions: human, liver microsomes.

`N#Cc1ccc2c(c1)CCC[C@@H]2Nc1ccc2[nH]nc(-c3ccncc3)c2c1`: the Kp in data set [1] is 1.8; in data set [15] it was 0.8. For the same molecule, the MRT – broadly, the average time that molecules of a dose stay in the body – was 48 min in data set [2] and 152 min in [6]. The results for the Cmax in data set [3] and in [8] were 470 nM and 340 nM, respectively. Besides, the clearance (in general, the rate of elimination divided by the concentration) in data set [4] was found to be 68.4 mL/min. Also, the AUC(0-inf) – broadly, the area under the concentration-time curve extrapolated to infinity – was found to be 1.49 µM·h in data set [5] and 0.27 µM·h in data set [16]. The half-life (in general, the time in which the quantity being followed falls by half) was 90 min in [7], 17.7 min in the data set “in vitro [13]”, 42 min in data set [14] and 33 min in “in vitro [17]”. Moreover, the Papp A→B (usually how fast a substance crosses the layer from the apical side) in “in vitro [9]” was 8.9 ×10⁻⁶ cm/s. Moreover, the Papp B→A (commonly how fast a substance crosses the layer from the basolateral side) in “in vitro [10]” is 7.3 ×10⁻⁶ cm/s. The bioavailability in data set [11] is 112%. For the same molecule, the Tmax (usually the time at which the peak concentration occurs) in data set [12] was 30 min.

Consider `Cc1cc(-c2n[nH]c3ccc(N[C@H]4CCCc5cc(C#N)ccc54)cc23)ccn1`, for which the Papp A→B in “in vitro [9]” stood at 13 ×10⁻⁶ cm/s. In “in vitro [10]”, this molecule gave a basolateral-to-apical permeability (Papp B→A) of 4.1 ×10⁻⁶ cm/s. The results for the half-life in “in vitro [13]” and in “in vitro [17]” were 15.4 min and 22 min, respectively.

As for `N#Cc1ccc2c(c1)CCC[C@H]2Nc1ccc2[nH]nc(-c3ccnc(N4CCOCC4)c3)c2c1`, the figures for the Kp in data set [1] and in [15] were 0.3 and 0.1, respectively. Besides, the MRT in [2] came to 51.6 min; in data set [6], 175 min. Besides, the Cmax (usually the highest concentration seen after dosing) came to 500 nM in data set [3] and 480 nM in data set [8]. The clearance in data set [4] was determined as 36.6 mL/min. Also, the AUC(0-inf) was determined as 1.64 µM·h in data set [5] and 0.4 µM·h in data set [16]. Also, the half-life in data set [7] is 104 min; in the data set “in vitro [13]” it was 12.7 min; in data set [14] it was 42 min; in “in vitro [17]”, 30 min. The Papp A→B in the data set “in vitro [9]” turned out to be 6.2 ×10⁻⁶ cm/s. The molecule further registered a Papp B→A in the data set “in vitro [10]” of 0.8 ×10⁻⁶ cm/s. Also, the bioavailability in data set [11] was found to be 80%. Besides, the Tmax in data set [12] amounted to 30 min.

In the case of `N#Cc1ccc2c(c1)OCC[C@H]2Nc1ccc2[nH]nc(-c3ccncc3)c2c1`, the Kp in data set [1] came to 1; in data set [15] it was 0.5. Also, the MRT came to 24.6 min in data set [2] and 145 min in data set [6]. The Cmax in data set [3] was determined as 460 nM; in data set [8], 280 nM. Besides, in [4], the clearance was 94.9 mL/min. Moreover, the AUC(0-inf) in data set [5] was 1.29 µM·h; in [16] it was 0.14 µM·h. For the same molecule, the half-life is 88.2 min in [7], 10.3 min in “in vitro [13]”, 18 min in data set [14] and 38 min in the data set “in vitro [17]”. The same molecule had a Papp A→B in “in vitro [9]” of 19 ×10⁻⁶ cm/s. Moreover, the Papp B→A in the data set “in vitro [10]” was determined as 25 ×10⁻⁶ cm/s. Moreover, the bioavailability in data set [11] is 147%. In addition, the Tmax in data set [12] worked out at 30 min.

Regarding `Cc1cc(-c2n[nH]c3ccc(N[C@@H]4CCCc5cc(C#N)ccc54)cc23)ccn1`, the results for the Kp in data set [1] and in data set [15] were 0.5 and 0.1, respectively. For the same molecule, the MRT in data set [2] amounted to 30.6 min; in [6], 162 min. In addition, the Cmax was 390 nM in [3] and 310 nM in data set [8]. Also, the clearance in data set [4] turned out to be 65.1 mL/min. The AUC(0-inf) in [5] was 1.06 µM·h; in data set [16] it was 0.16 µM·h. In addition, the half-life was 107 min in data set [7], 12.8 min in the data set “in vitro [13]”, 24 min in [14] and 22 min in “in vitro [17]”. Besides, in the data set “in vitro [9]”, the Papp A→B stood at 1.8 ×10⁻⁶ cm/s. This molecule also registered a Papp B→A in “in vitro [10]” of 6.8 ×10⁻⁶ cm/s. The bioavailability in data set [11] came to 77%. Further, the Tmax in [12] came to 3000 min.

As to `N#Cc1ccc2c(c1)CCC[C@H]2Nc1ccc2[nH]nc(-c3ccncc3)c2c1`, the Papp A→B in “in vitro [9]” amounted to 8.1 ×10⁻⁶ cm/s. The molecule further returned a Papp B→A in “in vitro [10]” of 11 ×10⁻⁶ cm/s. Moreover, the half-life in “in vitro [13]” was found to be 12.4 min; in “in vitro [17]” it was 26 min.

In turn, `Cc1cc(-c2n[nH]c3ccc(N[C@H]4CCCc5cc(C#N)ccc54)cc23)cc(C)n1` showed a Papp A→B in “in vitro [9]” of 4.6 ×10⁻⁶ cm/s. Moreover, the Papp B→A in “in vitro [10]” is 4 ×10⁻⁶ cm/s. Moreover, the half-life in “in vitro [13]” turned out to be 11.7 min; in the data set “in vitro [17]” it was 15 min.
